The values that follow come from patent US6645983B1, “Pharmaceutical compositions comprising 4-quinolones for treating cancers” (Laboratoire L. Lafon, priority 1999, dated 2003).

The structures appear in SMILES notation. Where only a bound is given, the exact number is not on record here.

The subject of the first series is A-427. In words: MTT test, cytotoxic activity on non-clonogenic cell lines. It counts as cell-based. The settings on record: Homo sapiens, 10^−5 M, 72 hours of incubation, control condition = 100%, mean value, read-out: mean optical density as percentage of control, A-427. The procedure, abridged: (§1)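 Human cancer lines seeded at 20 000–50 000 cells/ml, allowed 24 h to attach, then exposed to compounds at 10^−5 to 10^−10 M versus solvent control.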
For the molecule `COc1ccc2c(c1)c(=O)c(-c1ccccc1)cn2C` [CRL8379, 6-Methoxy-1-methyl-3-phenyl-1,4-dihydro-4-quinolinone], the viability at 10 µM was 94.2%.

As for `COc1cc(OC)c2c(=O)c(-c3ccccc3)c[nH]c2c1` [CRL8352, 5,7-Dimethoxy-3-phenyl-1,4-dihydro-4-quinolinone], the viability at 10 µM is 103%.

Another series relates to A549. The series is described as above. It counts as cell-based. As to conditions: Homo sapiens, 10^−5 M, 72 hours of incubation, control condition = 100%, mean value, read-out: mean optical density as percentage of control, A549. The procedure, abridged: as §1
Consider `COc1ccc2c(c1)c(=O)c(-c1ccccc1)cn2C` [CRL8379, 6-Methoxy-1-methyl-3-phenyl-1,4-dihydro-4-quinolinone], for which the viability at 10 µM stood at 94%.

Regarding `COc1cc(OC)c2c(=O)c(-c3ccccc3)c[nH]c2c1` [CRL8352, 5,7-Dimethoxy-3-phenyl-1,4-dihydro-4-quinolinone], the viability at 10 µM turned out to be 94.2%.

For a further series, the system named is HCT-15. The series is described as above. The class given is cell-based. As to conditions: Homo sapiens, 10^−5 M, 72 hours of incubation, control condition = 100%, mean value, read-out: mean optical density as percentage of control, HCT-16. The procedure, abridged: as §1
Turning to `COc1ccc2c(c1)c(=O)c(-c1ccccc1)cn2C` [CRL8379, 6-Methoxy-1-methyl-3-phenyl-1,4-dihydro-4-quinolinone], the viability at 10 µM stood at 106%.

As to `COc1cc(OC)c2c(=O)c(-c3ccccc3)c[nH]c2c1` [CRL8352, 5,7-Dimethoxy-3-phenyl-1,4-dihydro-4-quinolinone], the viability at 10 µM stood at 106%.

Another series relates to LoVo. The series is described as above. The settings on record: Homo sapiens, 10^−5 M, 72 hours of incubation, control condition = 100%, mean value, read-out: mean optical density as percentage of control, LoVo. The class given is cell-based. The procedure, abridged: as §1
Regarding `COc1ccc2c(c1)c(=O)c(-c1ccccc1)cn2C` [CRL8379, 6-Methoxy-1-methyl-3-phenyl-1,4-dihydro-4-quinolinone], the viability at 10 µM amounted to 102%.

With `COc1cc(OC)c2c(=O)c(-c3ccccc3)c[nH]c2c1` [CRL8352, 5,7-Dimethoxy-3-phenyl-1,4-dihydro-4-quinolinone], the viability at 10 µM came out at 103%.

The test system of the next series is MCF7. The series is described as above. The class given is cell-based. The settings on record: Homo sapiens, 10^−5 M, 72 hours of incubation, control condition = 100%, mean value, read-out: mean optical density as percentage of control, MCF7. The procedure, abridged:
as §1
As for `COc1ccc2c(c1)c(=O)c(-c1ccccc1)cn2C` [CRL8379, 6-Methoxy-1-methyl-3-phenyl-1,4-dihydro-4-quinolinone], the viability at 10 µM was 91.6%.

Consider `COc1cc(OC)c2c(=O)c(-c3ccccc3)c[nH]c2c1` [CRL8352, 5,7-Dimethoxy-3-phenyl-1,4-dihydro-4-quinolinone], for which the viability at 10 µM was 85.6%.

The subject of the next series is PC-3. The series is described as above. It counts as cell-based. As to conditions: Homo sapiens, 10^−5 M, 72 hours of incubation, control condition = 100%, mean value, read-out: mean optical density as percentage of control, PC-3. The procedure, abridged:
as §1
Turning to `COc1ccc2c(c1)c(=O)c(-c1ccccc1)cn2C` [CRL8379, 6-Methoxy-1-methyl-3-phenyl-1,4-dihydro-4-quinolinone], the viability at 10 µM is 99.2%.

On to `COc1cc(OC)c2c(=O)c(-c3ccccc3)c[nH]c2c1` [CRL8352, 5,7-Dimethoxy-3-phenyl-1,4-dihydro-4-quinolinone], for which the viability at 10 µM stood at 97.3%.

For the next series, the system named is T-47D. The series is described as above. It counts as cell-based. As to conditions: Homo sapiens, T47D; 10^−5 M, 72 hours of incubation, control condition = 100%, mean value; read-out: mean optical density as percentage of control, T-47D. The procedure, abridged:
as §1
Turning to `COc1ccc2c(c1)c(=O)c(-c1ccccc1)cn2C` [CRL8379, 6-Methoxy-1-methyl-3-phenyl-1,4-dihydro-4-quinolinone], the viability at 10 µM was 99.3%.

As to `COc1cc(OC)c2c(=O)c(-c3ccccc3)c[nH]c2c1` [CRL8352, 5,7-Dimethoxy-3-phenyl-1,4-dihydro-4-quinolinone], the viability at 10 µM is 105%.

In another series the test system is U-373MG. The description is as above. The settings on record: Homo sapiens, U373 MG; 10^−5 M, 72 hours of incubation, control condition = 100%, mean value; read-out: mean optical density as percentage of control, U-373MG. It counts as cell-based. The procedure, abridged:
as §1
As to `COc1ccc2c(c1)c(=O)c(-c1ccccc1)cn2C` [CRL8379, 6-Methoxy-1-methyl-3-phenyl-1,4-dihydro-4-quinolinone], the viability at 10 µM came to 113%.

On to `COc1cc(OC)c2c(=O)c(-c3ccccc3)c[nH]c2c1` [CRL8352, 5,7-Dimethoxy-3-phenyl-1,4-dihydro-4-quinolinone], for which the viability at 10 µM was 104%.

The next series relates to U-87MG. The description is as above. The class given is cell-based. As to conditions: Homo sapiens, U-87 MG; 10^−5 M, 72 hours of incubation, control condition = 100%, mean value; read-out: mean optical density as percentage of control, U-87MG. The procedure, abridged:
as §1
Regarding `COc1ccc2c(c1)c(=O)c(-c1ccccc1)cn2C` [CRL8379, 6-Methoxy-1-methyl-3-phenyl-1,4-dihydro-4-quinolinone], the viability at 10 µM is 95.3%.

With `COc1cc(OC)c2c(=O)c(-c3ccccc3)c[nH]c2c1` [CRL8352, 5,7-Dimethoxy-3-phenyl-1,4-dihydro-4-quinolinone], the viability at 10 µM is 158%.

The test system of a further series is SW1088. Described as above. The class given is cell-based. As to conditions: Homo sapiens, 10^−5 M, 72 hours of incubation, control condition = 100%, mean value, read-out: mean optical density as percentage of control, SW1088. The procedure, abridged: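 Human astrocytoma SW1088 cells seeded, grown 24 h at 37° C, 5% CO2, then exposed to compounds at 10^−5 to 10^−10 M versus solvent control. Viability by MTT reduction: 3 h MTT incubation, formazan dissolved in DMSO and read by spectrophotometry.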
For the molecule `COc1ccc2c(c1)c(=O)c(-c1ccccc1)cn2C` [CRL8379, 6-Methoxy-1-methyl-3-phenyl-1,4-dihydro-4-quinolinone], the viability at 10 µM was 98.3%.

In the case of `COc1cc(OC)c2c(=O)c(-c3ccccc3)c[nH]c2c1` [CRL8352, 5,7-Dimethoxy-3-phenyl-1,4-dihydro-4-quinolinone], the viability at 10 µM stood at 96.8%.

Another series relates to J82. The series is described as above. The class given is cell-based. As to conditions: Homo sapiens, 10^−5 M, 72 hours of incubation, control condition = 100%, mean value, read-out: mean optical density as percentage of control, J82. The procedure, abridged:
(§2)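 Human bladder cancer lines were seeded at 20 000–50 000 cells/ml and, after 24 h, exposed to compounds at 10^−5 to 10^−10 M against a solvent control. Formazan was dissolved in DMSO and viability was read by spectrophotometric optical density.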
On to `COc1ccc2c(c1)c(=O)c(-c1ccccc1)cn2C` [CRL8379, 6-Methoxy-1-methyl-3-phenyl-1,4-dihydro-4-quinolinone], for which the viability at 10 µM was 101%.

Turning to `COc1cc(OC)c2c(=O)c(-c3ccccc3)c[nH]c2c1` [CRL8352, 5,7-Dimethoxy-3-phenyl-1,4-dihydro-4-quinolinone], the viability at 10 µM turned out to be 93%.

The next series deals with T24. Described as above. The class given is cell-based. As to conditions: Homo sapiens, T-24; 10^−5 M, 72 hours of incubation, control condition = 100%, mean value; read-out: mean optical density as percentage of control, T24. The procedure, abridged: as §2
Consider `COc1ccc2c(c1)c(=O)c(-c1ccccc1)cn2C` [CRL8379, 6-Methoxy-1-methyl-3-phenyl-1,4-dihydro-4-quinolinone], for which the viability at 10 µM was 102%.

As for `COc1cc(OC)c2c(=O)c(-c3ccccc3)c[nH]c2c1` [CRL8352, 5,7-Dimethoxy-3-phenyl-1,4-dihydro-4-quinolinone], the viability at 10 µM was determined as 83.7%.

System in the next series: not listed separately
In words: Determination of the maximum tolerated dose (MTD). The settings on record: B6D2F1/Jico, mouse, in vivo, ip; single intraperitoneal administration, doses 2.5 to 160 mg/kg, survival over 14 days. The procedure, abridged: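 Mice were 4- to 6-week-old B6D2F1/Jico. They received a single intraperitoneal dose of 2.5 to 160 mg/kg, and survival and body weight were followed for 14 days. MTD is given in mg/kg and is capped at 160 mg/kg by default.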
As usually defined, the MTD is the largest dose that counted as tolerated. Low values mean poorer tolerability, high ones better tolerability. On to `COc1ccc2c(c1)c(=O)c(-c1ccccc1)cn2C` [CRL8379, 6-Methoxy-1-methyl-3-phenyl-1,4-dihydro-4-quinolinone], for which the MTD at 14 day was greater than 160 mg/kg.

As to `COc1cc(OC)c2c(=O)c(-c3ccccc3)c[nH]c2c1` [CRL8352, 5,7-Dimethoxy-3-phenyl-1,4-dihydro-4-quinolinone], the MTD at 14 day is greater than 160 mg/kg.
